Where two headings read alike, the source gives them in different places.
Test system: male Hartley guinea pigs actively sensitized with egg-white albumin
Assay: Antiallergic Test due to Antigen-Induced Immediate Type Airway Reaction and Delayed Type Airway Reaction
Type: in vivo
Details: Cavia porcellus, po, 10 mg/kg orally once one hour before induction (prednisolone 10 mg/kg orally twice, 16 hours and 2 hours before)
Procedure: Using an ultrasonic nebulizer (NE-U12, manufactured by OMRON Corporation), male Hartley guinea pigs (aged six weeks) were actively sensitized by consecutive 8-day inhalation of a 1 wt % physiological saline of egg-white albumin for 10 minutes a day. After one week passed since the final sensitization, an asthmatic disease state was induced by inhalation of a 2 wt % physiological saline of egg-white albumin for 5 minutes in the same manner. To inhibit the synthesis of endogenous steroid, metyrapone (10 mg/kg) was intravenously administered at 24 hours and one hour before the induction. To inhibit anaphylactic shock, pyrilamine (10 mg/kg) was intraperitoneally administered 30 minutes before inducing the asthmatic reaction.
After inducing the asthmatic reaction, the airway resistance (specific airway resistance Raw) was measured for 1 minute before inducing the asthmatic reaction, and 1 minute, 2 hours, 4 hours, 5 hours, 6 hours, 7 hours, 8 hours, and 23-24 hours after inducing the asthmatic reaction, using an airway resistance measuring apparatus (Pulmos-I, manufactured by M.I.P.S.). An average value of the airway resistance was determined, and an airway resistance increase ratio with respect to the value of the airway resistance before the induction was calculated by the following Equation 1.
Each of the test substances (10 mg/kg) listed in Table 1 was suspended in an aqueous 0.5% methyl cellulose solution, and the suspension was orally administered once one hour before inducing the asthmatic reaction. A positive control substance (prednisolone) was orally administered twice at a dosage of 10 mg/kg 16 hours and 2 hours before inducing the asthmatic reaction. The test was carried out on 8 animals per group.
According to this test procedure, a two-phase increase in airway resistance was observed immediately after inducing the asthmatic reaction and after 4-8 hours passed since inducing the asthmatic reaction. In the present invention, the former increase in airway resistance is referred to as the immediate type asthmatic reaction, while the latter increase in airway resistance is referred to as the delayed type asthmatic reaction. With respect to the evaluation of the drug, for the immediate type asthmatic reaction, the inhibition percentage with respect to the asthmatic reaction inhibiting medium administration group (referring to the group wherein a test drug is not administered after inducing the asthmatic reaction, hereinafter merely referred to as the “medium administration group”) was determined by Equation 2 using the airway resistance increase ratio after one minute gas passed since the induction as an index.
For the delayed type asthmatic reaction, the inhibition percentage with respect to the medium administration group was determined by the following Equation 3 using the area under the curve (AUC4-8) of the airway resistance increase ratio up to 4-8 hours after inducing the asthmatic reaction as an index. As an example, the relationship between the airway resistance increase ratio up to 4-8 hours after inducing the asthmatic reaction of the delayed type asthmatic reaction and time in the medium administration group, the prednisolone administration group, and the compound (216) administration group is shown in FIG. 1. As used herein, the area under the curve showing the relationship between the airway resistance increase ratio and time is (AUC4-8)
Airway resistance increase ratio (%)=(airway resistance after inducing the asthmatic airway resistance−airway resistance before inducing the asthmatic reaction)/(airway resistance before inducing the asthmatic reaction)×100
Inhibition (%)=(1−airway resistance increase ratio after one minute has passed since inducing the asthmatic reaction of the test substance administration group/airway resistance increase ratio after one minute has passed since inducing the asthmatic reaction of the medium administration group)×100 […]

[1] = 1 min, airway resistance increase ratio one minute after induction vs medium administration group, read-out: Inhibition (%) against immediate type allergy
[2] = AUC4-8 of airway resistance increase ratio 4-8 hours after induction vs medium administration group, read-out: Inhibition (%) against delayed type allergy

SMILES	inhibition in vivo at 10 mg/kg [1] [%]	inhibition in vivo at 10 mg/kg [2] [%]
CCCCCCCCOc1c(O)c2cccc(OCCC(=O)O)c2oc1=O [Compound (390), 3-octyloxy-4-hydroxy-8-(2-hydroxycarbonylethoxy)-2H-1-benzopyran-2-one]	29.7	61.1
C[C@]12C=CC(=O)C=C1CC[C@@H]1[C@@H]2[C@@H](O)C[C@@]2(C)[C@H]1CC[C@]2(O)C(=O)CO [Prednisolone, prednisolone, reference compound]	29	51.4

— patent US6670391B2, “Benzopyran derivative and antiallergic agent” (Dainippon Ink and Chemicals, Inc., priority 2001, dated 2003)
